Patent US9585840B1, “Redox active cerium oxide nanoparticles and associated methods” (University of Central Florida Research Foundation, Inc., priority 2009, dated 2017)

Assays:
SCL-1 cells [1] = experiment: Oxidized (carbonylated) proteins, Oxyblot, tumor cells; assay type: cell-based, human; details: 250 μM H2O2 for 1 h
Description: Dermal fibroblasts or tumor cells were grown to subconfluence on tissue culture dishes. After removal of serum-containing medium, HDF were cultured in CM^HDF and either mock-treated or pretreated for 40 h with 150 μM CeO2 nanoparticles prior to addition of 10 ng rTGFβ1/ml for additional 8 h. Tumor cells were mock-treated or treated with 150 μM CNP for 16 h. As positive control, the cells were treated with 250 μM H2O2 for 1 h. Thereafter, cells were lysed and carbonyl groups of oxidized proteins were detected with the OxyBlot™ Protein Oxidation Detection Kit, following the manufacturer's protocol. Briefly, the protein concentration was determined by using a modified Lowry method (Bio-Rad DC). The protein amounts of the samples were aligned. 5 μg of this cell lysate was incubated with 2,4-dinitrophenyl (DNP) hydrazine to form the DNP hydrazone derivatives. Labeled proteins were separated by SDS-PAGE and immunostained using rabbit anti-DNP antiserum (1:500) and goat anti-rabbit IgG conjugated to horseradish peroxidase (1:2000). Blots were developed by enhanced chemiluminescence.

SCL-1 cells [2] = experiment: Intracellular ROS, DCF fluorescence, tumor cells; assay type: cell-based, human; details: 250 μM H2O2, technical control; data not shown
Description: Generation of ROS was determined using 2′,7′-Dichlorodihydrofluorescein diacetate (H2DCF-DA), a dye that diffuses across the lipid membranes into cells and is subsequently oxidized by intracellular ROS forming the highly fluorescent DCF. Subconfluent HDF and SCL-1 tumor cells were exposed to 50 μM or 150 μM CNP in serum-free DMEM in 24-well plates. Untreated subconfluent SCL-1 cells were used as negative controls. Medium was substituted after 24 h by 100 μM H2DCF-DA containing Hanks Balanced Salt Solution (HESS). DCF fluorescence was detected at an excitation wavelength of 485 nm and emission wavelength of 520 nm in 15 minutes intervals in a FLUOstar OPTIMA plate reader (BMG Labtech, Offenburg, Germany). Mean fluorescence intensities and standard error of mean were determined for each reading point by using the statistical software Prism 3.0 (GraphPad, San Diego, Calif., USA).

αSMA = experiment: TGFβ1-mediated αSMA protein expression in human dermal fibroblasts, western blot; assay type: cell-based; details: HDF; for TGFβ1-triggered upregulation of αSMA protein levels: NAC 5.0 mM 4 h or Na2SeO3 0.5 μM 24 h pretreatment, rTGFβ1 5 ng/ml, 48 h after growth factor
Description: Human dermal fibroblasts (HDF) were established by outgrowth from foreskin biopsies of healthy human donors with an age of 3-6 years. Cells were used in passages 2-12, corresponding to cumulative population doubling levels of 3-27 [15]. Dermal fibroblasts and the squamous carcinoma cell line SCL-1, originally derived from the face of a person (generously provided by Prof. Dr Norbert Fusenig, DKFZ Heidelberg, Germany), were cultured as described. Myofibroblasts (MF) were generated by treatment of HDFs with different concentrations of recombinant TGFβ1 (5 ng/ml) for 48 h in HDF conditioned medium (CMHDF).
SDS-PAGE was performed according to the standard protocols published elsewhere with minor modifications. Briefly, cells were lysed after incubation with rTGFβ1 in 1% SDS with 1:1000 protease inhibitor cocktail (Sigma; Taufkirchen, Germany). After sonication, the protein concentration was determined by using a modified Lowry method (Bio-Rad DC). 2×SDS-PAGE sample buffer (1.5 M Tris-HCl pH 6.8, 6 ml 20% SDS, 30 ml glycerol, 15 ml β-mercaptoethanol and 1.8 mg bromophenol blue was added, and after heating, the samples (10 μg total protein/lane) were applied to 10% (w/v) SDS-polyacrylamide gels. After electroblotting, immunodetection was carried out (1:1000 dilution of primary antibodies (mouse monoclonal anti-SMA and tubulin), 1:20000 dilution of anti-mouse antibody conjugated to HRP). Antigen-antibody complexes were visualized by an enhanced chemiluminescence system. Alpha-tubulin was used as internal control for equal loading.

HIF-1 [3] = experiment: HIF-1 protein expression, western blot, fibroblasts; assay type: cell-based, human; details: HDF; 100 μM cobalt chloride; 4 h
HIF-1 [4] = experiment: HIF-1 protein expression, western blot, tumor cells; assay type: cell-based, human; details: SCL-1; 100 μM cobalt chloride; 4 h
αSMA mRNA = experiment: αSMA mRNA, quantitative real-time RT-PCR in human dermal fibroblasts; assay type: cell-based; details: HDF; 24 h after treatment; normalised to HPRT1
Description: Total RNA was isolated and transcribed into cDNA as described. Expression of mRNA was analyzed by real-time RT-PCR using a LightCycler system (Roche; Mannheim, Germany) as described. Real-time RT-PCR was performed with 40 ng cDNA in glass capillaries containing LightCycler FastStart DNA Master SYBR Green I Reaction Mix (Roche), 2 mM MgCl2 and 1 μM of primers. Quantitation of the PCR amplicons was performed using the LightCycler Software. Hypoxanthine phosphoribosyltransferase (HPRT1) was used as internal normalization control.

[5] = mouse, in vivo, iv, 0.5 mg/kg
Description: Eight-week-old, CD-1 mice were divided into two groups. Controls were given weekly doses of 100 μl sterile PBS only by intravenous (IV) administration. The nanoceria group received five doses (one dose a week) of 0.5 mg/kg of nanoceria suspended in 100 μl of sterile saline (IV). Both groups were sacrified on the sixth week. Skin tissue from the back of each animal was excised and hair removed. The tissue was patted dry, weighed and placed in 70% nitric acid overnight to start the digestion process. Samples were then microwave digested. The temperature was ramped to 200° C. over 20 min and held there for another 20 min. Samples were then boiled down to less than 1 ml each and reconstituted in water to an exact volume of 10 ml. Cerium levels were assessed using inductively coupled plasma mass spectroscopy (ICP-MS).

Molecule: OO [H2O2, Hydrogen peroxide]
- oxidized proteins, positive control (SCL-1 cells [1]): increase in oxidized proteins
- intracellular ROS level (SCL-1 cells [2]): further increased

Molecule: CC(=O)N[C@@H](CS)C(=O)O [NAC, N-acetyl-L-cysteine]
- TGFβ1-triggered upregulation of αSMA protein levels (αSMA): completely prevented

Molecule: [Cl][Co][Cl] [cobalt chloride]
- HIF-1 protein expression (HIF-1 [3]): not affected
- HIF-1 protein levels compared to mock-treated cells (HIF-1 [4]): significant increase

Molecule: O=[Se]([O-])[O-].[Na+].[Na+] [selenite, sodium selenite]
- TGFβ1-triggered upregulation of αSMA protein levels (αSMA): significantly lowered

Molecule: TGFβ1: Recombinant human TGFβ1 from R&D Systems, stimulus for myofibroblast formation
- αSMA protein amount compared with mock-treated control cells (αSMA; rTGFβ1 5 ng/ml for 8 to 48 h, starting at 16 h post treatment): significant time-dependent increase
- increase in αSMA steady-state mRNA levels compared to mock-treated controls (αSMA mRNA): 10 fold

Molecule: cerium oxide nanoparticles [CNP]
- increase in the amount of CeO2 per gram skin tissue vs mock-treated mice [5]: up to 8 fold
- cell morphology (human dermal fibroblasts): No change in morphology
